# Reference: patent US9149038B2, “4-amino-6-(heterocyclic)picolinates and 6-amino-2-(heterocyclic)pyrimidine-4-carboxylates and their use as herbicides” (Dow AgroSciences LLC, priority 2013, dated 2015)
# Where two headings read alike, the source gives them in different places.
# Experiments:
# [1] = test system: Key Grass and Sedge Weeds as well as Grass Crops; assay: Post-Emergent Test II: postemergent herbicidal activity, visual rating after 14 d (Table 8); type: in vivo; conditions: post-emergence, 336 h; for pest or weed control at 35 g/ha: 35 g ai/ha; for pest or weed control at 70 g/ha: 70 g ai/ha; for pest or weed control at 140 g/ha: 140 g ai/ha
# Outline: (§1)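 Visual 0-100% injury score (0 no injury, 100 complete kill) at 14 d post-spray, relative to untreated plants. Seedlings at 1st-2nd true leaf stage; track sprayer at 187 L/ha, highest rate plus ½×, ¼×, ⅛×, 1/16× serial dilutions. Subirrigated after treatment.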
# [2] = test system: Key Broadleaf Weed and Crop Species; assay: Post-Emergent Test II: postemergent herbicidal activity, visual rating after 14 d (Table 7); type: in vivo; conditions: post-emergence, 336 h; for pest or weed control at 35 g/ha: 35 g ai/ha; for pest or weed control at 70 g/ha: 70 g ai/ha; for pest or weed control at 140 g/ha: 140 g ai/ha
# Outline: as §1
# [3] = barnyardgrass (Echinochloa crus-galli), read-out: Visual Growth Reduction (%) 14 Days After Application, ECHCG
# [4] = giant foxtail (Setaria faberi), read-out: Visual Growth Reduction (%) 14 Days After Application, SETFA
# [5] = rice (Oryza sativa), read-out: Visual Growth Reduction (%) 14 Days After Application, ORYSA
# [6] = wheat, spring (Triticum aestivum), read-out: Visual Growth Reduction (%) 14 Days After Application, TRZAS
# [7] = yellow nutsedge (Cyperus esculentus), read-out: Visual Growth Reduction (%) 14 Days After Application, CYPES
# [8] = ABUTH: velvetleaf (Abutilon theophrasti), read-out: Visual Growth Reduction (%) 14 Days After Application ABUTH
# [9] = AMARE: redroot pigweed (Amaranthus retroflexus), read-out: Visual Growth Reduction (%) 14 Days After Application AMARE
# [10] = BRSNN: oilseed rape, canola (Brassica napus), read-out: Visual Growth Reduction (%) 14 Days After Application BRSNN
# [11] = CHEAL: lambsquarters (Chenopodium album), read-out: Visual Growth Reduction (%) 14 Days After Application CHEAL
# [12] = EPHHL: wild poinsettia (Euphorbia heterophylla), read-out: Visual Growth Reduction (%) 14 Days After Application EPHHL
# [13] = HELAN: sunflower (Helianthus annuus), read-out: Visual Growth Reduction (%) 14 Days After Application HELAN
smiles,measurement,setting,value
COC(=O)c1nc(-c2cccc3c2OC(F)(F)O3)cc(N)c1Cl [Compound 84],pest or weed control at 35 g/ha,[1]; [3],0 to 29%
same,pest or weed control at 70 g/ha,[1]; [3],0 to 29%
same,pest or weed control at 140 g/ha,[1]; [3],0 to 29%
same,pest or weed control at 35 g/ha,[1]; [4],0 to 29%
same,pest or weed control at 70 g/ha,[1]; [4],0 to 29%
same,pest or weed control at 140 g/ha,[1]; [4],0 to 29%
same,pest or weed control at 35 g/ha,[1]; [5],0 to 29%
same,pest or weed control at 70 g/ha,[1]; [5],0 to 29%
same,pest or weed control at 140 g/ha,[1]; [5],0 to 29%
same,pest or weed control at 35 g/ha,[1]; [6],0 to 29%
same,pest or weed control at 70 g/ha,[1]; [6],0 to 29%
same,pest or weed control at 140 g/ha,[1]; [6],0 to 29%
same,pest or weed control at 35 g/ha,[1]; [7],0 to 29%
same,pest or weed control at 70 g/ha,[1]; [7],0 to 29%
same,pest or weed control at 140 g/ha,[1]; [7],0 to 29%
same,pest or weed control at 35 g/ha,[2]; [8],45 to 59%
same,pest or weed control at 70 g/ha,[2]; [8],60 to 74%
same,pest or weed control at 140 g/ha,[2]; [8],75 to 84%
same,pest or weed control at 35 g/ha,[2]; [9],95 to 100%
same,pest or weed control at 70 g/ha,[2]; [9],95 to 100%
same,pest or weed control at 140 g/ha,[2]; [9],95 to 100%
same,pest or weed control at 35 g/ha,[2]; [10],60 to 74%
same,pest or weed control at 70 g/ha,[2]; [10],75 to 84%
same,pest or weed control at 140 g/ha,[2]; [10],85 to 94%
same,pest or weed control at 35 g/ha,[2]; [11],85 to 94%
same,pest or weed control at 70 g/ha,[2]; [11],85 to 94%
same,pest or weed control at 140 g/ha,[2]; [11],95 to 100%
same,pest or weed control at 35 g/ha,[2]; [12],0 to 29%
same,pest or weed control at 70 g/ha,[2]; [12],0 to 29%
same,pest or weed control at 140 g/ha,[2]; [12],0 to 29%
same,pest or weed control at 35 g/ha,[2]; [13],0 to 29%
same,pest or weed control at 70 g/ha,[2]; [13],30 to 44%
same,pest or weed control at 140 g/ha,[2]; [13],30 to 44%
